Reference: patent US7531554B2, “4-oxoquinoline compound and use thereof as HIV integrase inhibitor” (Japan Tobacco Inc., priority 2004, dated 2009)
Counter-ions that a name gives are not always drawn.

Biological target: T1, HIV integrase (Human immunodeficiency virus type 1 group M subtype B, UniProt P12497, F1332H)
T1 construct: HIV integrase full length gene (J. Virol., 67, 425-437 (1993)) in which phenylalanine at codon 185 was substituted by histidine; made in house; host or cells: Escherichia coli BL21(DE3)
Assay: Determination of enzyme (HIV integrase) inhibitory activity
Assay type: biochemical
Conditions: recombinant integrase protein (F185H), donor DNA/target DNA, absorbance at 450 nm
Method: HIV integrase full length gene (J. Virol., 67, 425-437 (1993)) in which phenylalanine at codon 185 was substituted by histidine, was inserted between the restriction enzyme NdeI and XhoI sites of plasmid pET21a(+) (Novagen), whereby an integrase expression vector pET21a-IN-F185H was constructed.
Escherichia coli recombinant BL21(DE3) transformed with plasmid pET21a-IN-F185H obtained in (i) was shake cultured at 30° C. in a liquid medium containing ampicillin. When the culture reached the logarithmic growth phase, isopropyl-β-D-thiogalactopyranoside was added to promote expression of integrase gene. The culture was continued for 3 hr to promote accumulation of the integrase protein. The recombinant E. coli was collected in pellets by centrifugal separation and preserved at −80° C.
The E. coli was suspended in Lysis buffer (20 mM HEPES (pH 7.5), 5 mM DTT, 10 mM CHAPS, 10% glycerol) containing 1M sodium chloride and subjected to repeat pressurization and depressurization for rupture, and centrifugal separation at 4° C., 40,000×g, 60 min to recover a water-soluble fraction (supernatant). This was diluted 10-fold with Lysis buffer free of sodium chloride, mixed with SP-Sepharose (Pharmacia Corporation) and stirred at 4° C. for 60 min to allow adsorption of integrase protein to the resin. The resin was washed with Lysis buffer containing 100 mM sodium chloride and the integrase protein was eluted with Lysis buffer containing 1M sodium chloride.
The eluted integrase protein solution was subjected to a Superdex 75 (Pharmacia Corporation) column for gel filtration. The protein was eluted with Lysis buffer containing 1M sodium chloride.
The obtained fractions of the integrase protein were collected and preserved at −80° C.
The following DNA synthesized by Greiner was dissolved in TE buffer (10 mM Tris-hydrochloric acid (pH 8.0), 1 mM EDTA) and mixed with donor DNA, target DNA, and each complementary strand (+ and − strands) to 1 μM. The mixture was heated at 95° C. for 5 min, 80° C. for 10 min, 70° C. for 10 min, 60° C. for 10 min, 50° C. for 10 min and 40° C. for 10 min and kept at 25° C. to give a double stranded DNA, which was used for the test. Donor DNA ([…] attached to the 5′ terminal) Donor + strand: 5′-Biotin-ACCCTTTTAGTCAGTGTGGAAAATCTCTAGCA-3′ (SEQ ID NO:1) Donor − strand: 5′-ACTGCTAGAGATTTTCCACACTGACTAAAAG-3′ (SEQ ID NO:2) Target DNA (+, − strands both having digoxigenin added at 3′ terminal) Target + strand: 5′-TGACCAAGGGCTAATTCACT-Dig-3′ (SEQ ID NO:3) Target − strand: 5′-AGTGAATTAGCCCTTGGTCA-Dig-3′ (SEQ ID NO:4)
The donor DNA was diluted with TE buffer to 10 nM, of which 50 μl was added to each well of streptavidin-coated microtiter plate (Roche) and allowed to adsorb at 37° C. for 60 min. The plate was washed with phosphate buffer (Dulbecco's PBS, Sanko Junyaku Co., Ltd.) containing 0.1% Tween 20 and phosphate buffer. Then, an enzyme reaction mixture (70 μl), a test substance (10 μl) diluted with the reaction mixture and 100 μg/ml integrase protein (10 μl) were added to each well and reacted at 37° C. for 60 min.
Then, 50 nM target DNA (10 μl) was added, reacted at 37° C. for 10 min and washed with phosphate buffer containing 0.1% Tween 20 to stop the reaction.
Then, 100 mU/ml peroxidase labeled anti-digoxigenin antibody solution (Roche, 100 μl) was added, and the mixture was reacted at 37° C. for 60 min, followed by washing with phosphate buffer containing 0.1% Tween 20.
A peroxidase color solution (Bio Rad, 100 μl) was added and allowed to react at room temperature for 4 min. The color reaction was stopped by adding 1N sulfuric acid (100 μl). The absorbance at 450 nm was measured.
The HIV integrase inhibitory activity (IC50) of the compound of the present invention was calculated from the inhibition rate according to the following formula. […]

| SMILES | IC50 |
| --- | --- |
| COc1cc2c(cc1C(O)c1cccc(Cl)c1F)c(=O)c(C(=O)O)cn2[C@H](CO)C(C)C (single isomer, unassigned) [Example 7-7] | 17 nM |
| COc1cc2c(cc1C(O)c1cccc(Cl)c1F)c(=O)c(C(=O)O)cn2[C@H](CO)C(C)C (single isomer, unassigned) [Example 7-8] | 39 nM |
| COc1cc2c(cc1Cc1ccc(F)c(Cl)c1)c(=O)c(C(=O)O)cn2[C@H](CO)C(C)C [Example 1-1, 6-(3-chloro-4-fluorobenzyl)-1-((1S)-1-(hydroxymethyl)-2-methylpropyl)-7-methoxy-4-oxo-1,4-dihydroquinoline-3-carboxylic acid] | 19 nM |
| COc1cc2c(cc1Cc1c(F)ccc(Cl)c1F)c(=O)c(C(=O)O)cn2[C@H](CO)C(C)C [Example 1-2, 6-(3-chloro-2,6-difluorobenzyl)-1-((1S)-1-(hydroxymethyl)-2-methylpropyl)-7-methoxy-4-oxo-1,4-dihydroquinoline-3-carboxylic acid] | 3.8 nM |
| COc1cc2c(cc1Cc1c(O)ccc(Cl)c1F)c(=O)c(C(=O)O)cn2[C@H](CO)C(C)C [Example 1-3, 6-(3-chloro-2-fluoro-6-hydroxybenzyl)-1-((1S)-1-(hydroxymethyl)-2-methylpropyl)-7-methoxy-4-oxo-1,4-dihydroquinoline-3-carboxylic acid] | 7.8 nM |
| COc1cc2c(cc1Cc1ccc(O)c(Cl)c1F)c(=O)c(C(=O)O)cn2[C@H](CO)C(C)C [Example 1-4, 6-(3-chloro-2-fluoro-4-hydroxybenzyl)-1-((1S)-1-(hydroxymethyl)-2-methylpropyl)-7-methoxy-4-oxo-1,4-dihydroquinoline-3-carboxylic acid] | 25 nM |
| COc1cc2c(cc1Cc1ccc(F)c(Cl)c1F)c(=O)c(C(=O)O)cn2[C@H](CO)C(C)C [Example 1-5, 6-(3-chloro-2,4-difluorobenzyl)-1-((1S)-1-(hydroxymethyl)-2-methylpropyl)-7-methoxy-4-oxo-1,4-dihydroquinoline-3-carboxylic acid] | 3.3 nM |
| COc1cc2c(cc1Cc1cc(O)cc(Cl)c1F)c(=O)c(C(=O)O)cn2[C@H](CO)C(C)C [Example 1-6, 6-(3-chloro-2-fluoro-5-hydroxybenzyl)-1-((1S)-1-(hydroxymethyl)-2-methylpropyl)-7-methoxy-4-oxo-1,4-dihydroquinoline-3-carboxylic acid] | 4.6 nM |
| COc1cc2c(cc1Cc1cc(F)c(F)c(Cl)c1F)c(=O)c(C(=O)O)cn2[C@H](CO)C(C)C [Example 1-7, 6-(3-chloro-2,4,5-trifluorobenzyl)-1-((1S)-1-(hydroxymethyl)-2-methylpropyl)-7-methoxy-4-oxo-1,4-dihydroquinoline-3-carboxylic acid] | 5.5 nM |
| COc1cc2c(cc1Cc1ccc(F)cc1C(F)(F)F)c(=O)c(C(=O)O)cn2[C@H](CO)C(C)C [Example 1-10, 6-(4-fluoro-2-(trifluoromethyl)benzyl)-1-((1S)-1-(hydroxymethyl)-2-methylpropyl)-7-methoxy-4-oxo-1,4-dihydroquinoline-3-carboxylic acid] | 280 nM |
| COc1cc2c(cc1Cc1c(F)cccc1C(F)(F)F)c(=O)c(C(=O)O)cn2[C@H](CO)C(C)C [Example 1-12, 6-(2-fluoro-6-(trifluoromethyl)benzyl)-1-((1S)-1-(hydroxymethyl)-2-methylpropyl)-7-methoxy-4-oxo-1,4-dihydroquinoline-3-carboxylic acid] | 260 nM |
| COc1cc2c(cc1Cc1cccc(Cl)c1F)c(=O)c(C(=O)O)cn2[C@H](CO)C1CCOCC1 [Example 2-1, 6-(3-chloro-2-fluorobenzyl)-1-((1S)-2-hydroxy-1-(tetrahydropyran-4-yl)ethyl)-7-methoxy-4-oxo-1,4-dihydroquinoline-3-carboxylic acid] | 4.6 nM |
| COc1cc2c(cc1Cc1cccc(Cl)c1F)c(=O)c(C(=O)O)cn2C(CO)C1CCNCC1 (stereo not shown) [Example 2-2, 6-(3-chloro-2-fluorobenzyl)-1-(2-hydroxy-1-(piperidin-4-yl)ethyl)-7-methoxy-4-oxo-1,4-dihydroquinoline-3-carboxylic acid hydrochloride] | 12 nM |
| COc1cc2c(cc1Cc1cccc(Cl)c1F)c(=O)c(C(=O)O)cn2[C@H](CO)CSC [Example 2-3, 6-(3-chloro-2-fluorobenzyl)-1-((1R)-1-(hydroxymethyl)-2-(methylthio)ethyl)-7-methoxy-4-oxo-1,4-dihydroquinoline-3-carboxylic acid] | 6.8 nM |
| COc1cc2c(cc1Cc1cccc(Cl)c1F)c(=O)c(C(=O)O)cn2[C@H](CO)CS(C)(=O)=O [Example 2-4, 6-(3-chloro-2-fluorobenzyl)-1-((1R)-1-(hydroxymethyl)-2-mesylethyl)-7-methoxy-4-oxo-1,4-dihydroquinoline-3-carboxylic acid] | 10 nM |
| COc1cc2c(cc1Cc1cccc(Cl)c1F)c(=O)c(C(=O)O)cn2[C@H](CO)C(C)(C)S(C)(=O)=O [Example 2-6, 6-(3-chloro-2-fluorobenzyl)-1-((1R)-1-(hydroxymethyl)-2-mesyl-2-methylpropyl)-7-methoxy-4-oxo-1,4-dihydroquinoline-3-carboxylic acid] | 3.8 nM |
| CSC[C@@H](CO)n1cc(C(=O)O)c(=O)c2cc(Cc3cccc(Cl)c3F)ccc21 [Example 2-7, 6-(3-chloro-2-fluorobenzyl)-1-((1R)-1-(hydroxymethyl)-2-(methylthio)ethyl)-4-oxo-1,4-dihydroquinoline-3-carboxylic acid] | 8.1 nM |
| CS(=O)(=O)C[C@@H](CO)n1cc(C(=O)O)c(=O)c2cc(Cc3cccc(Cl)c3F)ccc21 [Example 2-8, 6-(3-chloro-2-fluorobenzyl)-1-((1R)-1-(hydroxymethyl)-2-mesylethyl)-4-oxo-1,4-dihydroquinoline-3-carboxylic acid] | 20 nM |
| CC(C)([C@@H](CO)n1cc(C(=O)O)c(=O)c2cc(Cc3cccc(Cl)c3F)ccc21)S(C)(=O)=O [Example 2-10, 6-(3-chloro-2-fluorobenzyl)-1-((1R)-1-(hydroxymethyl)-2-mesyl-2-methylpropyl)-4-oxo-1,4-dihydroquinoline-3-carboxylic acid] | 4.2 nM |
| COc1cc2c(cc1Cc1cccc(Cl)c1F)c(=O)c(C(=O)O)cn2[C@H](CO)[C@@H](C)OC [Example 2-11, 6-(3-chloro-2-fluorobenzyl)-1-((1R,2R)-1-(hydroxymethyl)-2-methoxypropyl)-7-methoxy-4-oxo-1,4-dihydroquinoline-3-carboxylic acid] | 5 nM |
| COc1cc2c(cc1Cc1cccc(Cl)c1F)c(=O)c(C(=O)O)cn2[C@H](CO)CCSC [Example 2-12, 6-(3-chloro-2-fluorobenzyl)-1-((1S)-1-(hydroxymethyl)-3-(methylthio)propyl)-7-methoxy-4-oxo-1,4-dihydroquinoline-3-carboxylic acid] | 5.7 nM |
| COc1cc2c(cc1Cc1cccc(Cl)c1F)c(=O)c(C(=O)O)cn2[C@H](CO)CCS(C)(=O)=O [Example 2-13, 6-(3-chloro-2-fluorobenzyl)-1-((1S)-1-(hydroxymethyl)-3-mesylpropyl)-7-methoxy-4-oxo-1,4-dihydroquinoline-3-carboxylic acid] | 6.9 nM |
